Test results from US8188048B2 (priority 2006, dated 2012).
Where “and” joins values, the source holds several entries; their conditions need not be identical. Equal entries are not always repeated.

Test system: CCI-rats (chronic constriction injury of the sciatic nerve); tactile allodynia in ipsilateral hindpaw, antinociception in contralateral hindpaw
Parameters: species or system Sprague-Dawley rats
Conditions: rat, in vivo

## pGlu Gly Val Cys1 Cys2 Gly Tyr Lys Leu Cys3 His Hyp Cys4 [SEQ ID NO: 6]
  ED10: 0.2 nmol
  ED20: 0.4 nmol
  ED50 for antinociception in the contralateral hindpaw: 15.2 nmol
  ED50 for the alleviation of tactile allodynia in the ipsilateral hindpaw: 14.8 (±1.1) nmol and 15.7 (±3.9) nmol
  change of mean PWT by 5 min post-dosing: more than doubled
  duration of action: 2 to 3 h and > 4 h
  duration of action relative to a similarly large dose of i.t. morphine (35 nmol): ~10 fold
  duration of anti-allodynic response relative to the 10 nmol dose: > 7 fold and > 13 fold
  duration of the anti-allodynic response: ~30 h and ~54 h
  effect on PWT in both the ipsilateral and contralateral hindpaws: dose-dependent increase
  extent and duration (PWT AUCs) of ipsilateral responses relative to contralateral responses: ~2 fold
  time of peak anti-allodynic and antinociceptive effects: 1 to 1.5 h
  time of peak antiallodynic and antinociceptive effects post-dosing: 15 min
  time of peak effect: 1 to 1.5 h
